Laboratory results from patent publication US20160376240A1, “6 Phenyl or 6 Pyridin 3 YL Indazole Derivatives and Methods of Use” (ABBVIE INC., priority 2014, published 2016).
pIC50: −log10 of the molar value.

Target: T1, TrkA (Homo sapiens, UniProt P04629)
T1 construct: purchased Invitrogen PV3144
Test: TrkA kinase inhibition, HTRF assay
Format: biochemical
Details: LCK peptide substrate 125 nM, TrkA 2-10 nM pre-incubated with ATP 200 μM
Procedure: TrkA, TrkB, and TrkC enzymes were obtained from Invitrogen (as catalog numbers PV3144, PV3616, and PV3617, respectively). The ability of a compound to inhibit the enzymatic activity of the TrkA, TrkB, and TrkC enzymes was determined in separate assays. Enzyme activity was measured in an HTRF® (homogeneous time resolved fluorescence) assay, which detects enzymatic phosphorylation of a biotinylated synthetic peptide substrate (an LCK peptide analog, biotin-ahx-GAEEEIYAAFFA, from Genemed Synthesis). Phosphorylation is assessed by HTRF® in the presence of an anti-phosphotyrosine antibody conjugated to Eu^3+ cryptate (Cisbio) as donor fluorophore, and streptavidin conjugated to allophycocyanin (ProZyme) as acceptor fluorophore. The HTRF® signal was detected at two different wavelengths (620 nm and 665 nm) which were used to calculate the fluorescence ratio.
Each enzyme was titrated to a concentration optimized to ensure accurate measurement of the initial reaction rate. To allow the Trk enzymes to undergo activation and auto-phosphorylation, a 20 minute pre-incubation with ATP was carried out (at twice the final targeted enzyme and ATP concentration) prior to addition of test compound and the peptide substrate.
TrkA in vitro assays were performed by pre-incubating TrkA (2-10 nM) with ATP (200 μM) for 20 minutes at ambient temperature in 50 mM HEPES pH 7.4, 10 mM MgCl2, 2 mM MnCl2, 100 μM Na3VO4, 1 mM dithiothreitol, 0.01% BSA (bovine serum albumin). Then, to the activated Trk enzyme mixture was added the test compound in 2% dimethyl sulfoxide. After 10 minutes, the peptide substrate (125 nM) was added. After 1 hour, enzyme reactions were terminated by addition of equal reaction volumes of detection/stop reagent (containing 0.2 μg/mL anti-phosphotyrosine monoclonal antibody labeled with europium from Cisbio (catalog# PT66-K), and 4 μg/mL PhycoLink® Streptavidin-Allophycocyanin conjugate from ProZyme (catalog# PJ25S) in 60 mM EDTA in 40 mM HEPES pH 7.4, 480 mM KF, 0.01% Tween® 20 and 0.1% BSA bovine serum albumin) Reaction plates were stored at 4° C. overnight before reading the fluorescence ratio signal on a PerkinElmer EnVision™ fluorescence detector. Individual reaction wells were stopped at time points to obtain reaction rates. The test inhibitor compounds were assayed in duplicate, at half-log serial dilutions over a range of concentrations (e.g. starting at 50 μM or 5 μM as the high compound concentration). The percent Trk enzyme inhibition was calculated from the initial rates of the inhibited reactions relative to the uninhibited control. IC50 values were calculated by fitting the inhibition percent to the concentration of inhibitor [I] in the assay in equation 1 below, to solve for the IC50.
Inhibition %=100[I]/([I]+[IC50]) equation 1

T1 sequence (P04629 33-796): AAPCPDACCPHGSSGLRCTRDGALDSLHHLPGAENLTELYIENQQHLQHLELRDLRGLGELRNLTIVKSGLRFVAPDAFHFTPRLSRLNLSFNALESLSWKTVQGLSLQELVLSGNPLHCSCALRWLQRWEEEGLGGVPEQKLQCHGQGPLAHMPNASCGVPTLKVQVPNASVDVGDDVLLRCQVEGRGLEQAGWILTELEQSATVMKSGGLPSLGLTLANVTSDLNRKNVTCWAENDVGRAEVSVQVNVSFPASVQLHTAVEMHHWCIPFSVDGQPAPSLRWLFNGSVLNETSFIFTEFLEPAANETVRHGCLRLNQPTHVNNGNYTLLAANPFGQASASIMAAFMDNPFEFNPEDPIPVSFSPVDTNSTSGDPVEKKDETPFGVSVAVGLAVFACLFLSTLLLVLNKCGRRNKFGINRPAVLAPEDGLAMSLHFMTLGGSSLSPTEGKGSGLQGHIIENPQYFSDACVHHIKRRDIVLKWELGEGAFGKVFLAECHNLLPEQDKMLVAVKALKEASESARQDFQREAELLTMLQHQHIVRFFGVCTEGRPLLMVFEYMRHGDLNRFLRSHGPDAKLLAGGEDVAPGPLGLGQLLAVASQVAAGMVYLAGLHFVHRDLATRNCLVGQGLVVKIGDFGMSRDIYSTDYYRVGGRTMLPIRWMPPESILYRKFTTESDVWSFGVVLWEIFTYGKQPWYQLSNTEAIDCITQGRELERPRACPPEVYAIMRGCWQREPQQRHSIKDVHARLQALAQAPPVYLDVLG

| pIC50 | Compound |
| --- | --- |
| 6.15 | NC(=O)c1ccc(-c2cc(OC3CCOCC3)c3c(N)n[nH]c3c2)cc1N1CCN(CCCO)CC1 [Example 7, 4-[3-amino-4-(tetrahydro-2H-pyran-4-yloxy)-1H-indazol-6-yl]-2-[4-(3-hydroxypropyl)piperazin-1-yl]benzamide] |
| 7.75 | Cc1n[nH]c2cc(-c3ccc(C(=O)NC4CC4)c(N4CCN(c5ccccc5)CC4)c3)cc(OC3CCOCC3)c12 [Example 117, N-cyclopropyl-4-[3-methyl-4-(tetrahydro-2H-pyran-4-yloxy)-1H-indazol-6-yl]-2-(4-phenylpiperazin-1-yl)benzamide] |
| 7.00 | CNC(=O)c1ccc(-c2cc(O[C@H](C)C(F)(F)F)c3c(N)n[nH]c3c2)cc1N1CCN(C(=O)C(C)(C)C)CC1 [Example 54, 4-(3-amino-4-{[(2R)-1,1,1-trifluoropropan-2-yl]oxy}-1H-indazol-6-yl)-2-[4-(2,2-dimethylpropanoyl)piperazin-1-yl]-N-methylbenzamide] |
| 7.80 | CC(=O)C(=O)Nc1ccc(-c2cc(OC3CCOCC3)c3c(C)n[nH]c3c2)cc1N1CCN(C2CCCCC2)CC1 [Example 133, N-{2-(4-cyclohexylpiperazin-1-yl)-4-[3-methyl-4-(tetrahydro-2H-pyran-4-yloxy)-1H-indazol-6-yl]phenyl}-2-oxopropanamide] |
| 8.09 | CNC(=O)c1ccc(-c2cc(OC3CCOCC3)c3c(C)n[nH]c3c2)cc1N1CCN(C(=O)OC(C)(C)C)CC1 [Example 122, tert-butyl 4-{2-(methylcarbamoyl)-5-[3-methyl-4-(tetrahydro-2H-pyran-4-yloxy)-1H-indazol-6-yl]phenyl}piperazine-1-carboxylate] |
| 6.50 | CCc1n[nH]c2cc(-c3ccc(C(=O)NC)c(N4CCN(C(=O)OC(C)(C)C)CC4)c3)cc(OC3CCOCC3)c12 [Example 158, tert-butyl 4-{5-[3-ethyl-4-(tetrahydro-2H-pyran-4-yloxy)-1H-indazol-6-yl]-2-(methylcarbamoyl)phenyl}piperazine-1-carboxylate] |
| 4.87 | NC(=O)c1ccc(-c2ccc3c(N)n[nH]c3c2)cc1N1CCN(CCN2CCOCC2)CC1 [Example 89, 4-(3-amino-1H-indazol-6-yl)-2-{4-[2-(morpholin-4-yl)ethyl]piperazin-1-yl}benzamide] |
| 6.78 | CC(=O)Nc1ccc(-c2cc(OC3CCOCC3)c3c(C)n[nH]c3c2)cc1N1CCN(C(=O)NC(C)C)CC1 [Example 151, 4-{2-acetamido-5-[3-methyl-4-(tetrahydro-2H-pyran-4-yloxy)-1H-indazol-6-yl]phenyl}-N-isopropylpiperazine-1-carboxamide] |
| 7.57 | CNC(=O)c1ccc(-c2cc(OC3CCOCC3)c3c(N)n[nH]c3c2)cc1N1CCN(C(=O)OC(C)(C)C)CC1 [Example 111, tert-butyl 4-{5-[3-amino-4-(tetrahydro-2H-pyran-4-yloxy)-1H-indazol-6-yl]-2-(methylcarbamoyl)phenyl}piperazine-1-carboxylate] |
| 7.63 | Cc1n[nH]c2cc(-c3ccc(C(N)=O)c(N4CCN(C(=O)OC(C)C)CC4)c3)cc(OC3CCOCC3)c12 [Example 142, isopropyl 4-{2-carbamoyl-5-[3-methyl-4-(tetrahydro-2H-pyran-4-yloxy)-1H-indazol-6-yl]phenyl}piperazine-1-carboxylate] |
| 7.08 | CCNC(=O)c1ccc(-c2cc(OC3CCCC3)c3cn[nH]c3c2)cc1N1CCN(c2ccccc2)CC1 [Example 120, 4-[4-(cyclopentyloxy)-1H-indazol-6-yl]-N-ethyl-2-(4-phenylpiperazin-1-yl)benzamide] |
| 7.13 | Cc1n[nH]c2cc(-c3cncc(N4CCN(c5ccccc5)CC4)c3)cc(OC3CCCC3)c12 [Example 161, 4-(cyclopentyloxy)-3-methyl-6-[5-(4-phenylpiperazin-1-yl)pyridin-3-yl]-1H-indazole] |
| 7.20 | CNC(=O)c1ccc(-c2cc(O[C@@H](C)C(F)(F)F)c3c(N)n[nH]c3c2)cc1N1CCN(c2ncccn2)CC1 [Example 43, 4-(3-amino-4-{[(2S)-1,1,1-trifluoropropan-2-yl]oxy}-1H-indazol-6-yl)-N-methyl-2-[4-(pyrimidin-2-yl)piperazin-1-yl]benzamide] |
| 5.46 | CN1CCC(N2CCN(c3cc(-c4cc(OC5CCOCC5)c5c(N)n[nH]c5c4)ccc3C(N)=O)CC2)CC1 [Example 9, 4-[3-amino-4-(tetrahydro-2H-pyran-4-yloxy)-1H-indazol-6-yl]-2-[4-(1-methylpiperidin-4-yl)piperazin-1-yl]benzamide] |
| 8.42 | CC(=O)Nc1ccc(-c2cc(OC3CCOCC3)c3c(C)n[nH]c3c2)cc1N1CCN(C(=O)OC(C)(C)C)CC1 [Example 141, tert-butyl 4-{2-acetamido-5-[3-methyl-4-(tetrahydro-2H-pyran-4-yloxy)-1H-indazol-6-yl]phenyl}piperazine-1-carboxylate] |
| 7.94 | CNC(=O)c1ccc(-c2cc(OC3CCOCC3)c3c(N)n[nH]c3c2)cc1N1CCN(CCC(F)(F)F)CC1 [Example 168, 4-[3-amino-4-(tetrahydro-2H-pyran-4-yloxy)-1H-indazol-6-yl]-N-methyl-2-[4-(3,3,3-trifluoropropyl)piperazin-1-yl]benzamide] |
| 7.05 | CC(=O)N1CCN(c2cc(-c3cc(OC(C)C(F)(F)F)c4c(N)n[nH]c4c3)ccc2C(N)=O)CC1 (centres unmarked) [Example 96, 2-(4-acetylpiperazin-1-yl)-4-{3-amino-4-[(1,1,1-trifluoropropan-2-yl)oxy]-1H-indazol-6-yl}benzamide] |
| 7.87 | CC(=O)c1ccc(-c2cc(OC3CCOCC3)c3c(N)n[nH]c3c2)cc1N1CCN(c2ccc(F)cc2)CC1 [Example 17, 1-{4-[3-amino-4-(tetrahydro-2H-pyran-4-yloxy)-1H-indazol-6-yl]-2-[4-(4-fluorophenyl)piperazin-1-yl]phenyl}ethanone] |
| 5.65 | NC(=O)c1ccc(-c2ccc3c(N)n[nH]c3c2)cc1N1CCN(C2CCCCC2)CC1 [Example 85, 4-(3-amino-1H-indazol-6-yl)-2-(4-cyclohexylpiperazin-1-yl)benzamide] |
| 7.56 | CC(Oc1cc(-c2ccc(C(N)=O)c(N3CCN(C4CC4)CC3)c2)cc2[nH]nc(N)c12)C(F)(F)F (centres unmarked) [Example 97, 4-{3-amino-4-[(1,1,1-trifluoropropan-2-yl)oxy]-1H-indazol-6-yl}-2-(4-cyclopropylpiperazin-1-yl)benzamide] |
| 7.57 | CNC(=O)c1ccc(-c2cc(O[C@H](C)C(F)(F)F)c3c(N)n[nH]c3c2)cc1N1CCN(c2ncccn2)CC1 [Example 52, 4-(3-amino-4-{[(2R)-1,1,1-trifluoropropan-2-yl]oxy}-1H-indazol-6-yl)-N-methyl-2-[4-(pyrimidin-2-yl)piperazin-1-yl]benzamide] |
| 7.80 | CNC(=O)c1ccc(-c2cc(OC3CCOCC3)c3c(C)n[nH]c3c2)cc1N1CCN(Cc2cccc(F)c2)CC1 [Example 154, 2-[4-(3-fluorobenzyl)piperazin-1-yl]-N-methyl-4-[3-methyl-4-(tetrahydro-2H-pyran-4-yloxy)-1H-indazol-6-yl]benzamide] |
| 7.23 | CNC(=O)c1ccc(-c2cc(OC3CCOCC3)c3c(C)n[nH]c3c2)cc1N1CCN(C(=O)CC(C)C)CC1 [Example 160, N-methyl-2-[4-(3-methylbutanoyl)piperazin-1-yl]-4-[3-methyl-4-(tetrahydro-2H-pyran-4-yloxy)-1H-indazol-6-yl]benzamide] |
| 7.94 | CNC(=O)c1ccc(-c2cc(OC3CCOCC3)c3c(N)n[nH]c3c2)cc1N1CCN(CC(F)(F)C(F)F)CC1 [Example 167, 4-[3-amino-4-(tetrahydro-2H-pyran-4-yloxy)-1H-indazol-6-yl]-N-methyl-2-[4-(2,2,3,3-tetrafluoropropyl)piperazin-1-yl]benzamide] |
| 7.74 | CNC(=O)c1ccc(-c2cc(OC3CCOCC3)c3c(C)n[nH]c3c2)cc1N1CCN(C(=O)OCC(F)(F)F)CC1 [Example 136, 2,2,2-trifluoroethyl 4-{2-(methylcarbamoyl)-5-[3-methyl-4-(tetrahydro-2H-pyran-4-yloxy)-1H-indazol-6-yl]phenyl}piperazine-1-carboxylate] |
| 6.83 | CC(=O)N1CCN(c2cc(-c3cc(OC4CCOCC4)c4c(N)n[nH]c4c3)ccc2C(N)=O)CC1 [Example 4, 2-(4-acetylpiperazin-1-yl)-4-[3-amino-4-(tetrahydro-2H-pyran-4-yloxy)-1H-indazol-6-yl]benzamide] |
